ChEMBL document CHEMBL3886609, “Piperidylpyrimidine derivatives as modulators of protein kinase inhibitors and of vascular endothelial growth factor receptor 2” (2016)

Molecular target: Vascular endothelial growth factor receptor 2 (Homo sapiens, UniProt P35968)
Test: VEGFR2 Kinase Assay: Biochemical KDR kinase assays were performed in 96 well microtiter plates that were coated overnight with 75 ug/well of poly-Glu-Tyr (4:1) in 10 mM Phosphate Buffered Saline (PBS), pH 7.4. The coated plates were washed with 2 mls per well PBS+0.05% Tween-20 (PBS-T), blocked by incubation with PBS containing 1% BSA, then washed with 2 mls per well PBS-T prior to starting the reaction. Reactions were carried out in 100 uL reaction volumes containing 2.7 uM ATP in kinase buffer (50 mM Hepes buffer pH 7.4, 20 mM MgCl2, 0.1 mM MnCl2 and 0.2 mM Na3VO4). Test compounds were reconstituted in 100% DMSO and added to the reaction to give a final DMSO concentration of 5%. Reactions were initiated by the addition 20 ul per well of kinase buffer containing 200-300 ng purified cytoplasmic domain KDR protein (BPS Bioscience, San Diego, Calif.). Following a 15 minute incubation at 30° C., the reactions were washed 2 mls per well PBS-T. 100 ul of a monoclonal anti-phosphotyrosine antibody-peroxidase conjugate diluted 1:10,000 in PBS-T was added to the wells for 30 minutes. Following a 2 mls per well wash with PBS-Tween-20, 100 ul of 0-Phenylenediamine Dihydrochloride in phosphate-citrate buffer, containing urea hydrogen peroxide, was added to the wells for 7-10 minutes as a colorimetric substrate for the peroxidase. […]

Chain of Vascular endothelial growth factor receptor 2 (P35968 whole entry, the tested form may be a part): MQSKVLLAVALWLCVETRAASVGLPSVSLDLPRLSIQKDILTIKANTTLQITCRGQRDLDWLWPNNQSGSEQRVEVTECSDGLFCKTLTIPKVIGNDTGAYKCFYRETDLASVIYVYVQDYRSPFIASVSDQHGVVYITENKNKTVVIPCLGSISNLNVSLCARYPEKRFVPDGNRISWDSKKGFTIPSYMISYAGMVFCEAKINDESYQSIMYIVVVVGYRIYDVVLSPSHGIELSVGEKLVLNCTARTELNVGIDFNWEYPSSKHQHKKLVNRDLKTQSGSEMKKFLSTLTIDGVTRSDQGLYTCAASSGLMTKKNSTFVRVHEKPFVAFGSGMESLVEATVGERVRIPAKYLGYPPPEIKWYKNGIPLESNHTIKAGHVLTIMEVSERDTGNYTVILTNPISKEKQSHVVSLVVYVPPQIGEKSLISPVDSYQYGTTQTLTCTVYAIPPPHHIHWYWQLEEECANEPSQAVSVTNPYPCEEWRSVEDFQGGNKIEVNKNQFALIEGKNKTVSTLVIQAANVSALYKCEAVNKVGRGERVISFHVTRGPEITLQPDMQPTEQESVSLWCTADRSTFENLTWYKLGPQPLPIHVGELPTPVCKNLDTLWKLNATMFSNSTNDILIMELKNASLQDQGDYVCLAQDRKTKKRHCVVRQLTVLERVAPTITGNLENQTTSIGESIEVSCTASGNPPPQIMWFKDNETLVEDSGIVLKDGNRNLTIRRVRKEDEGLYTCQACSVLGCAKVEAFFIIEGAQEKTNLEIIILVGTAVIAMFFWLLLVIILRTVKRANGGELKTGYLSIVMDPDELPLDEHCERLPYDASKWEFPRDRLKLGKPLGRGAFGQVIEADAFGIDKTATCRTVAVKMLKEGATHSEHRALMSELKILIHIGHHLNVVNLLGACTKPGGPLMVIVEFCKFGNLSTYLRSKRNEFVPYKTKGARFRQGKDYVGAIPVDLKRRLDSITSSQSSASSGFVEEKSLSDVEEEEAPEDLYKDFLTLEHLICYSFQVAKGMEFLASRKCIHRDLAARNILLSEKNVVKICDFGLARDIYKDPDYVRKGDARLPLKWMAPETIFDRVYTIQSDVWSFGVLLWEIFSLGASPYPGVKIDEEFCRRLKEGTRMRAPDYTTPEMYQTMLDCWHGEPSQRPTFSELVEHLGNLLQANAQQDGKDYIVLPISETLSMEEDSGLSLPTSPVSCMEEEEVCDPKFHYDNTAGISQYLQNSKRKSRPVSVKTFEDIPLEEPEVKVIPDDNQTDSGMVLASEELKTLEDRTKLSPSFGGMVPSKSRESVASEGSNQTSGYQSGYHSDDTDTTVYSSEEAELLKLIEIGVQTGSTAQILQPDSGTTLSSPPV

IC50: 11 nM
SMILES: O=C(c1cccnc1)N1CCc2nc(Nc3ccsc3)ncc2C1
